# Source: article doi:10.1101/2024.02.23.581731v1 (biorxiv, 2024)
# Positions count from the first letter of the chain named.
# Key:
# [1] = biological target: T1, h5-HT3AR (Homo sapiens, UniProt P46098); assay: FLIPR Blue membrane potential assay, activation; assay type: cell-based; conditions: relative to 1 µM VTX
# T1 sequence (P46098 24-478): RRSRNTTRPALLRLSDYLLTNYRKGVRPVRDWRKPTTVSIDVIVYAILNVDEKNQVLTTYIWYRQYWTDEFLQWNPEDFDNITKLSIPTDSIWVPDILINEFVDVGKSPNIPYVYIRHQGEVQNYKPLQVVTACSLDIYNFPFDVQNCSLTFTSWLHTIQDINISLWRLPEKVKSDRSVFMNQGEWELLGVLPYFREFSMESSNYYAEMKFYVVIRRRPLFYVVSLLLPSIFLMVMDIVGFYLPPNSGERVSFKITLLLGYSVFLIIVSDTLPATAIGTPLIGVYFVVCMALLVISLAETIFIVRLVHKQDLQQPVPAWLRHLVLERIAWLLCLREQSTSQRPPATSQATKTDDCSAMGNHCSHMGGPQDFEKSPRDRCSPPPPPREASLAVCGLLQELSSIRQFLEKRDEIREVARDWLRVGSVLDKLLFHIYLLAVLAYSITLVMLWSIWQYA
# [2] = biological target: T1, h5-HT3AR; assay: [3H]-GR65630 displacement, HEK-293 membranes; assay type: binding
# [3] = biological target: T2, h5-HT3AR (Homo sapiens, UniProt P46098, V202I); assay: biochemical
# T2 sequence (P46098 24-478 V202I): T1 sequence (P46098 24-478) with V179I
# [4] = biological target: T1, h5-HT3AR; assay: biochemical
# [5] = biological target: T3, gp5-HT3AR (Cavia porcellus, UniProt O70212); assay: FLIPR Blue membrane potential assay, inhibition of 5-HT response; assay type: cell-based
# T3 sequence (O70212 20-490): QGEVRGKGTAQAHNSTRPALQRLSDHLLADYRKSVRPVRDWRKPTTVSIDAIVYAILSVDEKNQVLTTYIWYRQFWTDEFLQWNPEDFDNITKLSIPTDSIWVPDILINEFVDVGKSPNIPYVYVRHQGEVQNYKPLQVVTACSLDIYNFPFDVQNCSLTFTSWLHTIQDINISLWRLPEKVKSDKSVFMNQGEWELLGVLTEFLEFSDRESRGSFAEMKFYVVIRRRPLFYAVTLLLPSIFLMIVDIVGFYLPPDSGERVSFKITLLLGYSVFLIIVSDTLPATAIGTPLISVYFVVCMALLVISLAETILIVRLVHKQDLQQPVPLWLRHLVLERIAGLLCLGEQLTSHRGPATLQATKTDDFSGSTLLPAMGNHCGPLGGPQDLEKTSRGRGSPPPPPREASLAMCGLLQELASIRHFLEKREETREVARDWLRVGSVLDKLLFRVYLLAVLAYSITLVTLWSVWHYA
SMILES,Activity (%) at 1 μM [1],IC50 [5],also measured
Cc1ccc(Sc2ccc(C)cc2N2CCNCC2)c(C)c1 [6b],,,Ki [2]: 880 nM
Cc1[nH]cnc1CCC(=O)c1cn(C)c2ccccc12 [[3H]-GR65630],,,Kd [3]: 0.62 ± 0.05 nM; Kd [4]: 0.82 ± 0.06 nM
CN1C2CCCC1CC(NC(=O)c1nn(C)c3ccccc13)C2 (stereo not shown) [granisetron],,1260 nM,
Cc1nccn1CC1CCc2c(c3ccccc3n2C)C1=O (stereo not shown) [ondansetron],,9810 nM,

# The next lines start with results.
Activity (%) at 1 μM [1],IC50 [5],SMILES,also measured
95 ± 12%,,Cc1ccc(Sc2ccccc2N2CCNCC2)cc1 [4j],
111 ± 14%,,COc1ccc(Sc2ccccc2N2CCNCC2)c(Cl)c1 [5n],
